Results taken from US20250368649A1, “TETRAHYDROPYRIDOPYRIMIDINE PAN-KRAS INHIBITORS” (Mirati Therapeutics, Inc., priority 2022, published 2025).

Key:
KRas G12R = KRas G12R (Homo sapiens, UniProt P01116, G12R); experiment: biochemical; conditions: Binding to KRas (IC50 nM) G12R, TR-FRET displacement, KRas G12R
KRas G12D = KRas G12D (Homo sapiens, UniProt P01116, G12D); experiment: biochemical; conditions: Binding to KRas (IC50 nM) G12D, TR-FRET displacement, KRas G12D
HCT116 cells = experiment: Inhibition of KRas-mediated phosphorylation of ERK (Cisbio HTRF pERK), HCT116 cells; assay type: cell-based; conditions: Homo sapiens, HCT-116, single point at 100 nM, 3 hrs compound incubation
H460 cells = experiment: Inhibition of KRas-mediated phosphorylation of ERK (Cisbio HTRF pERK), H460 cells; assay type: cell-based; conditions: Homo sapiens, NCI-H460, single point at 100 nM, 3 hrs compound incubation
ASPC1 cells = experiment: Inhibition of KRas-mediated phosphorylation of ERK (Cisbio HTRF pERK), ASPC1 cells; assay type: cell-based; conditions: Homo sapiens, AsPC-1 cells; for IC50: ASPC1, 3 h, 3 hr compound incubation, Cisbio pERK HTRF; for inhibition at 0.1 µM: ASPC1, single point at 100 nM, 3 hrs compound incubation
H727 cells = experiment: Inhibition of KRas-mediated phosphorylation of ERK (Cisbio HTRF pERK), H727 cells; assay type: cell-based; conditions: Homo sapiens; for IC50: NCI-H727, 3 h, 3 hr compound incubation, Cisbio pERK HTRF; for inhibition at 0.1 µM: NCI-H727, single point at 100 nM, 3 hrs compound incubation
KRas G12V = KRas G12V (Homo sapiens, UniProt P01116, G12V); experiment: biochemical; conditions: Binding to KRas (IC50 nM) G12V, TR-FRET displacement, KRas G12V
Chain of KRas G12V (P01116 1-169 isoform P01116-2 G12V): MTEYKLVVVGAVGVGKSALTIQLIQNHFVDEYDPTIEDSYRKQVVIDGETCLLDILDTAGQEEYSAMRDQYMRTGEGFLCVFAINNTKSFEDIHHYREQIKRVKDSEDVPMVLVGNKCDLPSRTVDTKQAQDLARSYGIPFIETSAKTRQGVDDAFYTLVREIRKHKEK

H358 cells = experiment: Inhibition of KRas-mediated phosphorylation of ERK (Cisbio HTRF pERK), H358 cells; assay type: cell-based; conditions: Homo sapiens, NCI-H358, single point at 100 nM, 3 hrs compound incubation
A549 cells = experiment: Inhibition of KRas-mediated phosphorylation of ERK (Cisbio HTRF pERK), A549 cells; assay type: cell-based; conditions: Homo sapiens, single point at 100 nM, 3 hrs compound incubation

Chain of KRas G12D (P01116 1-169 isoform P01116-2 G12D): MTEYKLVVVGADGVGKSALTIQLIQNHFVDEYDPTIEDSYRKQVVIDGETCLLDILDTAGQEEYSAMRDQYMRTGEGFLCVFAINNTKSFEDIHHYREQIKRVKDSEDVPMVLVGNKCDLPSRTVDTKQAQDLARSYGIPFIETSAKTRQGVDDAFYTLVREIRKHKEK
Chain of KRas G12R (P01116 1-169 isoform P01116-2 G12R): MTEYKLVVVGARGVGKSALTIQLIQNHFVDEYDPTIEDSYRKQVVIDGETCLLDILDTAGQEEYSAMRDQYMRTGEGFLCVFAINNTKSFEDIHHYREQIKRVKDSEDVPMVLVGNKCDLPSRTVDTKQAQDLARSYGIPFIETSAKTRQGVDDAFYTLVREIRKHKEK

Q: `CCc1c(F)ccc2cc(O)cc(N3CCc4c(nc(OC[C@@]56CCCN5C[C@H](F)C6)nc4N4CCCn5nc(N(C)S(C)(=O)=O)cc5C4)C3)c12` [Example 334, N-(5-(7-(8-ethyl-7-fluoro-3-hydroxynaphthalen-1-yl)-2-(((2R,7aS)-2-fluorohexahydro-1H-pyrrolizin-7a-yl)methoxy)-5,6,7,8-tetrahydropyrido[3,4-d]pyrimidin-4-yl)-5,6,7,8-tetrahydro-4H-pyrazolo[1,5-a][1,4]diazepin-2-yl)-N-methylmethanesulfonamide] was tested. Which IC50 (KRas G12R) did it give?
A: 43 nM

Q: What about the IC50 (KRas G12D) of the same molecule?
A: 12 nM

Q: What about the inhibition at 0.1 µM (HCT116 cells) of the same molecule?
A: 12%

Q: What about the inhibition at 0.1 µM (H460 cells) of the same molecule?
A: -1%

Q: And the IC50 (ASPC1 cells)?
A: 999 nM

Q: What about the IC50 (H727 cells) of the same molecule?
A: 1690 nM

Q: What about the IC50 (KRas G12V) of the same molecule?
A: 50 nM

Q: What about the inhibition at 0.1 µM (H358 cells) of the same molecule?
A: 2%

Q: And the inhibition at 0.1 µM (A549 cells)?
A: 12%

Q: With `CCc1c(F)ccc2cc(O)cc(N3CCc4c(nc(OC[C@@]56CCCN5C[C@H](F)C6)nc4N4CCCn5nc(N(C)C(=O)C(C)C)cc5C4)C3)c12` [Example 335, N-(5-(7-(8-ethyl-7-fluoro-3-hydroxynaphthalen-1-yl)-2-(((2R,7aS)-2-fluorohexahydro-1H-pyrrolizin-7a-yl)methoxy)-5,6,7,8-tetrahydropyrido[3,4-d]pyrimidin-4-yl)-5,6,7,8-tetrahydro-4H-pyrazolo[1,5-a][1,4]diazepin-2-yl)-N-methylisobutyramide] as the molecule, how does the IC50 (KRas G12R) read?
A: 32 nM

Q: What about the IC50 (KRas G12D) of the same molecule?
A: 29 nM

Q: What about the inhibition at 0.1 µM (HCT116 cells) of the same molecule?
A: 15%

Q: What about the inhibition at 0.1 µM (H460 cells) of the same molecule?
A: 10%

Q: What about the IC50 (ASPC1 cells) of the same molecule?
A: 779 nM

Q: And the IC50 (H727 cells)?
A: 656 nM

Q: What about the IC50 (KRas G12V) of the same molecule?
A: 44 nM

Q: And the inhibition at 0.1 µM (H358 cells)?
A: 0%

Q: And the inhibition at 0.1 µM (A549 cells)?
A: 13%

Q: `CCc1c(F)ccc2cc(O)cc(N3CCc4c(nc(OC[C@@]56CCCN5C[C@H](F)C6)nc4N4CCCn5nc(CN(C)S(=O)(=O)N(C)C)cc5C4)C3)c12` [Example 343, 7-(8-ethyl-7-fluoro-3-hydroxy-1-naphthyl)-2-(((2R,7aS)-2-fluorotetrahydro-1H-pyrrolizin-7a(5H)-yl)methoxy)-4-(2-((dimethylsulfamoyl)methylamino)methyl-7,8-dihydro-4H-pyrazolo[1,5-a][1,4]diazepin-5(6H)-yl)-6,8-dihydro-5H-pyrido[3,4-d]pyrimidine] was tested. Which IC50 (KRas G12R) did it give?
A: 18 nM

Q: What about the IC50 (KRas G12D) of the same molecule?
A: 8 nM

Q: And the inhibition at 0.1 µM (HCT116 cells)?
A: -2%

Q: And the inhibition at 0.1 µM (H460 cells)?
A: 7%

Q: And the IC50 (ASPC1 cells)?
A: 445 nM

Q: And the IC50 (H727 cells)?
A: 335 nM

Q: What about the IC50 (KRas G12V) of the same molecule?
A: 21 nM

Q: What about the inhibition at 0.1 µM (H358 cells) of the same molecule?
A: -13%

Q: And the inhibition at 0.1 µM (A549 cells)?
A: 4%

Q: With `CCc1c(F)ccc2cc(O)cc(N3CCc4c(nc(OC[C@@]56CCCN5C[C@H](F)C6)nc4N4CCCCC(CC(=O)NC)C4)C3)c12` (stereo partly drawn) [Example 346, 2-(1-(7-(8-ethyl-7-fluoro-3-hydroxynaphthalen-1-yl)-2-(((2R,7aS)-2-fluorohexahydro-1H-pyrrolizin-7a-yl)methoxy)-5,6,7,8-tetrahydropyrido[3,4-d]pyrimidin-4-yl)azepan-3-yl)-N-methylacetamide] as the molecule, how does the IC50 (KRas G12R) read?
A: < 2 nM

Q: What about the IC50 (KRas G12D) of the same molecule?
A: 6 nM

Q: And the inhibition at 0.1 µM (HCT116 cells)?
A: 7%

Q: And the inhibition at 0.1 µM (H460 cells)?
A: 9%

Q: What about the IC50 (ASPC1 cells) of the same molecule?
A: 1220 nM

Q: What about the IC50 (H727 cells) of the same molecule?
A: 822 nM

Q: And the IC50 (KRas G12V)?
A: 4 nM

Q: And the inhibition at 0.1 µM (H358 cells)?
A: 11%

Q: What about the inhibition at 0.1 µM (A549 cells) of the same molecule?
A: 19%

Q: What does the source list for `CCc1c(F)ccc2cc(O)cc(N3CCc4c(nc(OC[C@@]56CCCN5C[C@H](F)C6)nc4N4CCCCC(CC(N)=O)C4)C3)c12` (stereo partly drawn) [Example 347, 2-(1-(7-(8-ethyl-7-fluoro-3-hydroxynaphthalen-1-yl)-2-(((2R,7aS)-2-fluorohexahydro-1H-pyrrolizin-7a-yl)methoxy)-5,6,7,8-tetrahydropyrido[3,4-d]pyrimidin-4-yl)azepan-3-yl)acetamide]?
A: IC50 (KRas G12R): 2 nM; IC50 (KRas G12D): 7 nM; inhibition at 0.1 µM (HCT116 cells): -14%; inhibition at 0.1 µM (H460 cells): 21%; IC50 (ASPC1 cells): 690 nM; IC50 (H727 cells): 541 nM; IC50 (KRas G12V): 2 nM; inhibition at 0.1 µM (H358 cells): 5%; inhibition at 0.1 µM (A549 cells): 28%

Q: Which results are given for `CCc1c(F)ccc2cc(O)cc(N3CCc4c(nc(OC[C@@]56CCCN5C[C@H](F)C6)nc4N4CCCCC(P(C)(C)=O)C4)C3)c12` (stereo partly drawn) [Example 351, (1-(7-(8-ethyl-7-fluoro-3-hydroxynaphthalen-1-yl)-2-(((2R,7aS)-2-fluorotetrahydro-1H-pyrrolizin-7a(5H)-yl)methoxy)-5,6,7,8-tetrahydropyrido[3,4-d]pyrimidin-4-yl)azepan-3-yl)dimethylphosphine oxide]?
A: IC50 (KRas G12R): 4 nM; IC50 (KRas G12D): 12 nM; inhibition at 0.1 µM (HCT116 cells): 5%; inhibition at 0.1 µM (H460 cells): 1%; IC50 (ASPC1 cells): 3660 nM; IC50 (H727 cells): 1060 nM; IC50 (KRas G12V): 6 nM; inhibition at 0.1 µM (H358 cells): -7%; inhibition at 0.1 µM (A549 cells): 11%

Q: What does the source list for `CCc1c(F)ccc2cc(O)cc(N3CCc4c(nc(N5CC(C)(N)C5)nc4N4CCCn5nc(C(=O)N(C)C)cc5C4)C3)c12` [Example 427, 5-(2-(3-amino-3-methylazetidin-1-yl)-7-(8-ethyl-7-fluoro-3-hydroxynaphthalen-1-yl)-5,6,7,8-tetrahydropyrido[3,4-d]pyrimidin-4-yl)-N,N-dimethyl-5,6,7,8-tetrahydro-4H-pyrazolo[1,5-a][1,4]diazepine-2-carboxamide]?
A: IC50 (KRas G12R): 537 nM; IC50 (KRas G12D): 182 nM; inhibition at 0.1 µM (HCT116 cells): 4%; inhibition at 0.1 µM (H460 cells): 25%; inhibition at 0.1 µM (ASPC1 cells): -23%; inhibition at 0.1 µM (H727 cells): -14%; IC50 (KRas G12V): 253 nM; inhibition at 0.1 µM (H358 cells): -16%; inhibition at 0.1 µM (A549 cells): 0%

Q: How did the IC50 (KRas G12R) turn out when `CCc1c(F)ccc2cc(O)cc(N3CCc4c(nc(OCC5(CN(C)C)CC5)nc4N4CCCn5nc(C(=O)N6CCOCC6)cc5C4)C3)c12` [Example 429, (5-(2-((1-((dimethylamino)methyl)cyclopropyl)methoxy)-7-(8-ethyl-7-fluoro-3-hydroxynaphthalen-1-yl)-5,6,7,8-tetrahydropyrido[3,4-d]pyrimidin-4-yl)-5,6,7,8-tetrahydro-4H-pyrazolo[1,5-a][1,4]diazepin-2-yl)(morpholino)methanone] was run?
A: 3 nM

Q: What about the IC50 (KRas G12D) of the same molecule?
A: < 2 nM

Q: And the inhibition at 0.1 µM (HCT116 cells)?
A: -4%

Q: What about the inhibition at 0.1 µM (H460 cells) of the same molecule?
A: -3%

Q: What about the IC50 (ASPC1 cells) of the same molecule?
A: 113 nM

Q: And the IC50 (H727 cells)?
A: 95 nM

Q: And the IC50 (KRas G12V)?
A: < 2 nM

Q: What about the inhibition at 0.1 µM (H358 cells) of the same molecule?
A: 19%

Q: What about the inhibition at 0.1 µM (A549 cells) of the same molecule?
A: 23%

Q: Which results are given for `CCc1c(F)ccc2cc(O)cc(N3CCc4c(nc(N5CC(N(C)C)C5)nc4N4CCCC5(C4)NC(=O)NC5=O)C3)c12` (centres unmarked) [Example 433, 7-(2-(3-(dimethylamino)azetidin-1-yl)-7-(8-ethyl-7-fluoro-3-hydroxynaphthalen-1-yl)-5,6,7,8-tetrahydropyrido[3,4-d]pyrimidin-4-yl)-1,3,7-triazaspiro[4.5]decane-2,4-dione]?
A: IC50 (KRas G12R): 11 nM; IC50 (KRas G12D): 26 nM; inhibition at 0.1 µM (HCT116 cells): 1%; inhibition at 0.1 µM (H460 cells): 6%; IC50 (ASPC1 cells): 2610 nM; inhibition at 0.1 µM (ASPC1 cells): -5%; IC50 (H727 cells): 1160 nM; inhibition at 0.1 µM (H727 cells): 0%; IC50 (KRas G12V): 10 nM; inhibition at 0.1 µM (H358 cells): -7%; inhibition at 0.1 µM (A549 cells): 9%
